Measured values: patent US8889883B2, “BODIPY structure fluorescence dye for neural stem cell probe” (National University of Singapore, priority 2010, dated 2014)

Tested on: E14.5 fetal mouse brain cells
Assay: Neurosphere assay of FACS-sorted fetal mouse brain cells
Type: cell-based
Settings: CDr3, SSEA-1, Aldefluor, CD133 sorted cells
Experimental: Next, we were interested to test whether CDr3 can be used for the isolation of NSC from the heterogeneous populations of cells. According to the protocol described by Bibel et al.^7, we induced differentiation of E14 to generate FABP7-positive radial glial cells. The embryoid bodies generated from E14 in the absence of leukemia inhibitory factor were treated with retinoic acid for 2 days until dissociation into single cell suspension. The cells were stained with CDr3 and the CDr3bright and CDr3dim cells were collected separately by FACS. Each cell population was stained with FABP7 antibody and analyzed by flow cytometry. […] For the NSC isolation from the brain tissue, we incubated the E14.5 fetal mouse brain primary cells with CDr3, and the CDr3^bright and CDr3^dim cells were collected separately by FACS for gene expression analysis by real time RT-PCR and neurosphere assay. The expression levels of FABP7, Hes1, Musashi, Nestin and Pax6 in CDr3^bright cells were more than 3-fold higher than in CDr3^dim cells, while the differences of Hes5, Sox2 and Bmi1 expression levels were less than 2-fold (FIG. 5). […]
E14.5 fetal mouse brains were trypsinized in 0.25% trypsin with 1 mM EDTA solution (Invitrogen) for 30 mins at 37° C. before neutralization with FBS. […] The number and size of neurospheres generated from each group were measured after 6 days culture. […]

Cc1cc(C)n2c1C=C1C=CC(CCC(=O)NCC=O)=[N+]1[B-]2(F)F [Aldefluor, BODIPY-aminoacetaldehyde]
sizes of neurospheres from sorted cells: all similar
